Results reported in patent US20250263370A1 (Tay Therapeutics Limited, priority 2022, published 2025).
Several values for one entry are separate records, joined by “and”; a condition that tells them apart may be missing. Equal values may be shown once.

Tested on: collagen-induced arthritis
Assay: Collagen-induced arthritis (CIA) model in rats: body weight, paw volume, clinical scores, clinical observations; on Average detailed clinical score, left hind limb: key of the grades not given here; on Average detailed clinical score, right hind limb: key of the grades not given here; on Detailed Clinical Scores, left forelimb: key of the grades not given here; on Detailed Clinical Scores, left hind limb: key of the grades not given here; on Detailed Clinical Scores, right forelimb: key of the grades not given here; on Detailed Clinical Scores, right hind limb: key of the grades not given here; on Detailed Clinical Scores, score: key of the grades not given here; on Detailed Clinical Scores: left forelimb: key of the grades not given here; on Detailed Clinical Scores: left hind limb: key of the grades not given here; on Detailed Clinical Scores: right forelimb: key of the grades not given here; on Detailed Clinical Scores: right hind limb: key of the grades not given here; on Detailed Clinical Scores: score: key of the grades not given here; on Mean overall clinical score ± SD: key of the grades not given here; on overall clinical score: key of the grades not given here
Conditions: for Mean animal paw volume ± SD: group mean; for Animal paw volume percent change: individual animals; for Average detailed clinical score, left forelimb / Average detailed clinical score, left hind limb / Average detailed clinical score, right forelimb / Average detailed clinical score, right hind limb / Average detailed clinical score, score / Mean overall clinical score ± SD / Detailed Clinical Scores, left forelimb / Detailed Clinical Scores, left hind limb / Detailed Clinical Scores, right forelimb / Detailed Clinical Scores, right hind limb / Detailed Clinical Scores, score / Overall clinical score / Detailed Clinical Scores: left forelimb / Detailed Clinical Scores: left hind limb / Detailed Clinical Scores: right forelimb / Detailed Clinical Scores: right hind limb / Detailed Clinical Scores: score: CIA rats; for Detailed Clinical Scores, left forelimb / Detailed Clinical Scores, left hind limb / Detailed Clinical Scores, right forelimb / Detailed Clinical Scores, right hind limb / Detailed Clinical Scores, score / Detailed Clinical Scores: left forelimb / Detailed Clinical Scores: left hind limb / Detailed Clinical Scores: right forelimb / Detailed Clinical Scores: right hind limb / Detailed Clinical Scores: score: individual animals ID 1-8; for Overall clinical score: individual animals #1-8
Method: Prior to be randomly placed in treatment groups, animals were weighed, and paw volume was measured. Once randomly assigned to treatment groups, on Day 0, animals in groups 2-9 were immunized by subcutaneous injection at the base of the tail.
The immunization comprised 100 μL of the CFA+Collagen emulsion (prepared according to the method in Experimental Method A). Animals in group one received no immunization. Seven days after the first injection, animals in groups 2-9 received a booster immunization comprising 200 μL of the IFA+Collagen emulsion (prepared according to the method in Experimental Method A).
Starting on Day 0, animals in group 1 and 2 were administered daily doses of the vehicle per os (P.O.) for 21 days. […] The twice daily doses for animals in groups 4-9 were 8 hours apart (e.g., the first dose at 8:00 AM and the second dose at 4:00 PM).
Body weight of all animals was recorded daily for the 21-day period. Blind clinical scores on all four limbs were conducted for all animals in the study. Animals were assessed prior to receiving their first dose of the compound or control, and scores for each limb were combined to a total daily score for each animal. Clinical score assessments were performed on Day 0, 6, 12, 13, 14, 15, 18, 19, and 21 (for a total of 9 daily scores).
Paw volume was recorded for each animal on Day 0, 6, 12, 13, 14, 15, 18, 19, and 21 (for a total of 9 measurements). To measure paw volume, animals were gently held with one hand while the hind paw was placed into a plethysmometer with the other hand. Lipid displacement by the paw was recorded and used to represent paw volume.
All data measured and recorded was analyzed using SPSS 16.0 software. Groups were compared using one-way ANOVA and significance was set at p<0.05.

CNC(=O)c1cc(C(=O)NC2CC2)cn(Cc2ccccc2)c1=O [GSK620]
Mean animal paw volume ± SD (Day 13, L paw): 1.38 mL | Animal paw volume percent change (Day 13, L paw): 5.12% and 1.52% and 12.65% and −0.73% and 4.01% and 2.25% and 4.56% and 3.33% | Mean animal paw volume ± SD (Day 13, R paw): 1.41 mL | Animal paw volume percent change (Day 13, R paw): 9.84% and 3.07% and 10.98% and 14.65% and 3.66% and 3.02% and 6.04% and 3.75% | Average detailed clinical score, left forelimb (Day 13): 0.00 | Average detailed clinical score, left hind limb (Day 13): 0.00 | Average detailed clinical score, right forelimb (Day 13): 0.00 | Average detailed clinical score, right hind limb (Day 13): 0.13 | Average detailed clinical score, score (Day 13): 0.13 | Mean overall clinical score ± SD (Day 13): 0 ± 0 | Detailed Clinical Scores, left forelimb (Day 13): 0 | Detailed Clinical Scores, left hind limb (Day 13): 0 | Detailed Clinical Scores, right forelimb (Day 13): 0 | Detailed Clinical Scores, right hind limb (Day 13): 0 (7×) and 1 | Detailed Clinical Scores, score (Day 13): 0 (7×) and 1 | Overall clinical score (Day 13): 0 (7×) and 1 | Mean animal paw volume ± SD (Day 14, L paw): 1.55 mL | Animal paw volume percent change (Day 14, L paw): 21.65% and 34.98% and 13.44% and −0.37% and 4.01% and 4.87% and 31.18% and 27.78% | Mean animal paw volume ± SD (Day 14, R paw): 1.67 mL | Animal paw volume percent change (Day 14, R paw): 37.01% and 14.18% and 12.55% and 54.58% and 4.40% and 3.77% and 49.81% and 36.70% | Average detailed clinical score, left forelimb (Day 14): 0.00 | Average detailed clinical score, left hind limb (Day 14): 0.88 | Average detailed clinical score, right forelimb (Day 14): 0.00 | Average detailed clinical score, right hind limb (Day 14): 1.13 | Average detailed clinical score, score (Day 14): 2.00 | Mean overall clinical score ± SD (Day 14): 2 ± 2 | Detailed Clinical Scores, left forelimb (Day 14): 0 | Detailed Clinical Scores, left hind limb (Day 14): 1 and 2 (3×) and 0 (4×) | Detailed Clinical Scores, right forelimb (Day 14): 0 | Detailed Clinical Scores, right hind limb (Day 14): 2 (3×) and 0 (4×) and 3 | Detailed Clinical Scores, score (Day 14): 3 (2×) and 2 and 0 (3×) and 4 (2×) | Overall clinical score (Day 14): 3 (2×) and 2 and 0 (3×) and 4 (2×) | Mean animal paw volume ± SD (Day 15, L paw): 1.74 mL | Animal paw volume percent change (Day 15, L paw): 60.24% and 53.99% and 9.49% | Mean animal paw volume ± SD (Day 15, R paw): 1.86 mL | Animal paw volume percent change (Day 15, R paw): 61.02% and 59.00% and 7.84% | Average detailed clinical score, left forelimb (Day 15): 0.00 | Average detailed clinical score, left hind limb (Day 15): 1.63 | Average detailed clinical score, right forelimb (Day 15): 0.00 | Average detailed clinical score, right hind limb (Day 15): 2.00 | Average detailed clinical score, score (Day 15): 3.63 | Mean overall clinical score ± SD (Day 15): 4 ± 2 | Detailed Clinical Scores: left forelimb (Day 15): 0 | Detailed Clinical Scores: left hind limb (Day 15): 3 (3×) and 0 (2×) and 1 (2×) and 2 | Detailed Clinical Scores: right forelimb (Day 15): 0 | Detailed Clinical Scores: right hind limb (Day 15): 3 (3×) and 0 (2×) and 4 and 1 and 2 | Detailed Clinical Scores: score (Day 15): 6 (3×) and 0 and 4 (2×) and 1 and 2 | Overall clinical score (Day 15): 6 (3×) and 0 and 4 (2×) and 1 and 2 | Mean animal paw volume ± SD (Day 18, L paw): 2.48 mL | Animal paw volume percent change (Day 18, L paw): 113.78% and 92.78% and 88.54% | Mean animal paw volume ± SD (Day 18, R paw): 2.35 mL | Animal paw volume percent change (Day 18, R paw): 105.91% and 87.36% and 88.63% | Average detailed clinical score, left forelimb (Day 18): 0.00 | Average detailed clinical score, left hind limb (Day 18): 3.88 | Average detailed clinical score, right forelimb (Day 18): 0.00 | Average detailed clinical score, right hind limb (Day 18): 3.38 | Average detailed clinical score, score (Day 18): 7.25 | Mean overall clinical score ± SD (Day 18): 7 ± 1 | Detailed Clinical Scores: left forelimb (Day 18): 0 | Detailed Clinical Scores: left hind limb (Day 18): 4 (7×) and 3 | Detailed Clinical Scores: right forelimb (Day 18): 0 | Detailed Clinical Scores: right hind limb (Day 18): 4 (6×) and 0 and 3 | Detailed Clinical Scores: score (Day 18): 8 (6×) and 4 and 6 | Overall clinical score (Day 18): 8 (6×) and 4 and 6 | Mean animal paw volume ± SD (Day 19, L paw): 2.54 mL | Animal paw volume percent change (Day 19, L paw): 112.99% and 92.78% | Mean animal paw volume ± SD (Day 19, R paw): 2.36 mL | Animal paw volume percent change (Day 19, R paw): 103.54% and 88.12% | Average detailed clinical score, left forelimb (Day 19): 0.75 | Average detailed clinical score, left hind limb (Day 19): 3.63 | Average detailed clinical score, right forelimb (Day 19): 0.25 | Average detailed clinical score, right hind limb (Day 19): 3.00 | Average detailed clinical score, score (Day 19): 7.63 | Mean overall clinical score ± SD (Day 19): 8 ± 2 | Detailed Clinical Scores: left forelimb (Day 19): 1 (6×) and 0 (2×) | Detailed Clinical Scores: left hind limb (Day 19): 4 (5×) and 3 (3×) | Detailed Clinical Scores: right forelimb (Day 19): 0 (6×) and 1 (2×) | Detailed Clinical Scores: right hind limb (Day 19): 4 (3×) and 3 (4×) and 0 | Detailed Clinical Scores: score (Day 19): 9 (2×) and 10 and 6 and 5 and 7 (2×) and 8 | Overall clinical score (Day 19): 9 (2×) and 10 and 6 and 5 and 7 (2×) and 8 | Mean animal paw volume ± SD (Day 21, L paw): 2.53 mL | Animal paw volume percent change (Day 21, L paw): 112.99% and 90.49% | Mean animal paw volume ± SD (Day 21, R paw): 2.35 mL | Animal paw volume percent change (Day 21, R paw): 106.69% and 86.59% | Average detailed clinical score, left forelimb (Day 21): 0.88 | Average detailed clinical score, left hind limb (Day 21): 3.63 | Average detailed clinical score, right forelimb (Day 21): 0.25 | Average detailed clinical score, right hind limb (Day 21): 3.13 | Average detailed clinical score, score (Day 21): 7.88 | Mean overall clinical score ± SD (Day 21): 8 ± 2 | Detailed Clinical Scores: left forelimb (Day 21): 1 (5×) and 2 and 0 (2×) | Detailed Clinical Scores: left hind limb (Day 21): 4 (5×) and 3 (3×) | Detailed Clinical Scores: right forelimb (Day 21): 0 (6×) and 1 (2×) | Detailed Clinical Scores: right hind limb (Day 21): 4 (3×) and 3 (4×) and 1 | Detailed Clinical Scores: score (Day 21): 9 (2×) and 11 and 6 (2×) and 7 (2×) and 8 | Overall clinical score (Day 21): 9 (2×) and 11 and 6 (2×) and 7 (2×) and 8
